Results published in patent publication US20100063065A1 (Inpharmatica Limited, priority 2005, published 2010).
Counter-ions that a name gives are not always drawn.

Biological target: T1, PPARδ (Homo sapiens, UniProt Q03181)
T1 construct: fused to amino acids 147-441 of PPARδ downstream of CMV promoter; expressed in transfected cells; host or cells: HEK293 cells, transiently transfected with pFACMV-PPARδ using Fugene
T1 sequence (Q03181 147-441): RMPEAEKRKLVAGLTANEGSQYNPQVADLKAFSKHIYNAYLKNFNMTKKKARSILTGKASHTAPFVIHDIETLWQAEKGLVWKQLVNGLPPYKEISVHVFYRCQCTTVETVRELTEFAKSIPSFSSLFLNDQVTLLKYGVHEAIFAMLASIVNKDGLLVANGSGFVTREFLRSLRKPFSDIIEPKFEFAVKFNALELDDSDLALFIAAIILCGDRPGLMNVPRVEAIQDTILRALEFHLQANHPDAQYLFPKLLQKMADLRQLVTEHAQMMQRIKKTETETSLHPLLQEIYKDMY
Experiment: Transactivation assay (PPARδ GAL4 assay) in transiently transfected HEK293 cells
Format: cell-based
Settings: luciferase reporter
Protocol: Compounds were screened for their functional potency in transiently transfected HEK293 cells for their ability to activate PPAR subtypes. Cells were cultured in DMEM (Invitrogen) supplemented with 10% foetal calf serum, glutamine, penicillin and streptomycin and plated at 10 000 cells/well of a 96-well solid white plate and incubated at 37° C./5% CO2 for 24 hours. Media was removed and the cells washed with PBS. Cells were then transiently transfected using Fugene (Roche) with 50 ng pFACMV-PPARδ (plasmid encoding amino acids 1-147 of the GAL4 DNA binding domain, fused to amino acids 147-441 of PPARδ downstream of CMV promoter) and 250 ng pFR-Luc (reporter plasmid containing 5×GAL4 response elements upstream of a luciferase gene), using a ratio of 3:1 Fugene:DNA. 100 μl of this transfection mixture in DMEM (without foetal calf serum) was added to each well, and the incubation continued for a further 24 hours. The cells are then again washed with PBS prior to the addition of 100 μl reduced serum medium (OptiMEM; Invitrogen). Compounds were added (10 μl in 2% DMSO in OptiMEM) to achieve final concentrations between 0-30 μM. The cells were then returned to the incubator for a further 24 hours. 100 μl of luciferase reagent (Bright Glo, Promega) was added directly to each well, and the luminescence determined using a suitable luminometer.
To measure the selectivity of compounds, their ability to transactivate GAL4 fusions of PPARα LBD and PPARγ LBD was determined. The activity of compounds was expressed as a percentage relative to control compounds: PPARγ rosiglitazone (BRL 49653), PPARδ GW501516 (11) or PPARα KCL1999000269 (12). EC50 values were calculated by fitting of the data to a sigmoidal dose response curve.

Row | SMILES | EC50 (Table 1) [nM] | EC50 (Table 2) [nM]
1 | CCc1cc(C(=O)c2ccc(OC(F)(F)F)cc2)c(NC(=O)CN[C@H](C(=O)O)C(C)C)s1 [Example 79, (S)-2-({[5-Ethyl-3-(4-trifluoromethoxy-benzoyl)-thiophen-2-ylcarbamoyl]-methyl}-amino)-3-methyl-butyric acid] | < 100 | –
2 | CCc1cc(C(=O)c2ccc(OC(F)(F)F)cc2)c(NC(=O)CC(C)CC(=O)O)s1 (stereo not shown) [Example 174, 4-[5-Ethyl-3-(4-trifluoromethoxy-benzoyl)-thiophen-2-ylcarbamoyl]-3-methyl-butyric acid] | – | < 100
3 | CCc1cc(C(=O)c2ccc(OC(F)(F)F)cc2)c(NC(=O)C(CC)N2CCC[C@@H]2C(=O)O)s1 (stereo partly drawn) [Example 120, (R)-1-{1-[5-Ethyl-3-(4-trifluoromethoxy-benzoyl)-thiophen-2-ylcarbamoyl]-propyl}-pyrrolidine-2-carboxylic acid] | – | < 100
4 | CCc1cc(C(=O)c2ccc(OC(F)(F)F)cc2)c(NC(=O)CNC(CC(C)C)C(=O)O)s1 (stereo not shown) [Example 77, 2-({[5-Ethyl-3-(4-trifluoromethoxy-benzoyl)-thiophen-2-ylcarbamoyl]-methyl}-amino)-4-methyl-pentanoic acid] | < 100 | –
5 | CCc1ccc(C(=O)c2cc(CC)sc2NC(=O)CSC(C)(C)C(=O)O)cc1 [Example 10, 2-{[5-Ethyl-3-(4-ethyl-benzoyl)-thiophen-2-ylcarbamoyl]-methylsulfanyl}-2-methyl-propionic acid] | 100 to 1000 | –
6 | CCc1cc(C(=O)c2ccc(OC(F)(F)F)cc2)c(NC(=O)C(C)(C)NCC(=O)O)s1 [Example 118, {1-[5-Ethyl-3-(4-trifluoromethoxy-benzoyl)-thiophen-2-ylcarbamoyl]-1-methyl-ethylamino}-acetic acid] | – | 100 to 1000
7 | CCc1cc(C(=O)c2ccc(Cl)cc2)c(NC(=O)CSCC(=O)O)s1 [Example 23, {[3-(4-Chloro-benzoyl)-5-ethyl-thiophen-2-ylcarbamoyl]-methylsulfanyl}-acetic acid] | 100 to 1000 | –
8 | CCc1cc(C(=O)c2ccc(Cl)c(Cl)c2)c(NC(=O)CSC(C)(C)C(=O)O)s1 [Example 29, 2-{[3-(3,4-Dichloro-benzoyl)-5-ethyl-thiophen-2-ylcarbamoyl]-methylsulfanyl}-2-methyl-propionic acid] | < 100 | –
9 | CCc1cc(C(=O)c2ccc(-c3ccc(OC(F)(F)F)cc3)cc2)c(NC(=O)CSCC(=O)O)s1 [Example 39, {[5-Ethyl-3-(4′-trifluoromethoxy-biphenyl-4-carbonyl)-thiophen-2-ylcarbamoyl]-methylsulfanyl}-acetic acid] | < 100 | –
10 | CCc1cc(C(=O)c2ccc(OC(F)(F)F)cc2)c(NC(=O)CN[C@H](C)C(=O)O)s1 [Example 161, (R)-2-({[5-Ethyl-3-(4-trifluoromethoxy-benzoyl)-thiophen-2-ylcarbamoyl]-methyl}-amino)-propionic acid] | – | 100 to 1000
11 | CCc1cc(C(=O)c2ccc(OC)cc2)c(NC(=O)CN(C)CC(=O)O)s1 [Example 73, ({[5-Ethyl-3-(4-methoxy-benzoyl)-thiophen-2-ylcarbamoyl]-methyl}-methyl-amino)-acetic acid hydrochloride] | 1000 to 30000 | –
12 | CCc1cc(C(=O)c2ccc(OC)cc2)c(NC(=O)CSc2cccc(C(=O)O)c2)s1 [Example 90, 3-{[5-Ethyl-3-(4-methoxy-benzoyl)-thiophen-2-ylcarbamoyl]-methylsulfanyl}-benzoic acid] | 1000 to 30000 | –
13 | CCc1cc(C(=O)c2ccc(OC(F)(F)F)cc2)c(NC(=O)CN2CCCCC2C(=O)O)s1 (stereo not shown) [Example 165, 1-{[5-Ethyl-3-(4-trifluoromethoxy-benzoyl)-thiophen-2-ylcarbamoyl]-methyl}-piperidine-2-carboxylic acid] | – | 100 to 1000
14 | CCc1cc(C(=O)c2ccc(OC(F)(F)F)cc2)c(NC(=O)CN2[C@H](C)CC[C@@H]2C(=O)O)s1 (relative stereo) [Example 178, (2R*,5R*)-1-{[5-Ethyl-3-(4-trifluoromethoxy-benzoyl)-thiophen-2-ylcarbamoyl]-methyl}-5-methyl-pyrrolidine-2-carboxylic acid] | – | 1000 to 30000
15 | CCc1cc(C(=O)c2cccc(OC)c2)c(NC(=O)CSCC(=O)O)s1 [Example 48, {[5-Ethyl-3-(3-methoxybenzoyl)-thiophen-2-ylcarbamoyl]-methylsulfanyl}-acetic acid] | 1000 to 30000 | –
16 | CCc1cc(C(=O)c2ccc(OC(F)(F)F)cc2)c(NC(=O)C(C)N2CCC[C@@H]2C(=O)O)s1 (stereo partly drawn) [Example 123, (R)-1-{1-[5-Ethyl-3-(4-trifluoromethoxy-benzoyl)-thiophen-2-ylcarbamoyl]-ethyl}-pyrrolidine-2-carboxylic acid] | – | < 100
17 | CCc1cc(C(=O)c2ccc(Cl)cc2)c(NC(=O)CN2[C@@H](C(=O)O)CC[C@@H]2c2ccccc2)s1 [Example 187, (2R,5R)-1-{[3-(4-Chloro-benzoyl)-5-ethyl-thiophen-2-ylcarbamoyl]-methyl}-5-phenyl-pyrrolidine-2-carboxylic acid hydrochloride] | – | 100 to 1000
18 | CCc1cc(C(=O)c2ccc(OC(F)(F)F)cc2)c(NC(=O)CSC(CC)C(=O)O)s1 (stereo not shown) [Example 127, 2-{[5-Ethyl-3-(4-trifluoromethoxy-benzoyl)-thiophen-2-ylcarbamoyl]-methylsulfanyl}-butyric acid] | – | < 100
19 | CCc1cc(C(=O)c2cc3cc(Cl)ccc3n2C)c(NC(=O)CSCC(=O)O)s1 [Example 151, {[3-(5-Chloro-1-methyl-1H-indole-2-carbonyl)-5-ethyl-thiophen-2-ylcarbamoyl]-methylsulfanyl}-acetic acid] | – | < 100
20 | CCc1cc(C(=O)c2ccc(OC(F)(F)F)cc2)c(NC(=O)CSC(C)C(=O)O)s1 (stereo not shown) [Example 112, 2-{[5-Ethyl-3-(4-trifluoromethoxy-benzoyl)-thiophen-2-ylcarbamoyl]-methylsulfanyl}-propionic acid] | – | < 100
21 | CCc1cc(C(=O)c2ccc(OC(F)(F)F)cc2)c(NC(=O)CN[C@@H](C(=O)O)C(C)C)s1 (single isomer, unassigned) [Example 75, 2-({[5-Ethyl-3-(4-trifluoromethoxy-benzoyl)-thiophen-2-ylcarbamoyl]-methyl}-amino)-3-methyl-butyric acid] | < 100 | –
22 | CCc1cc(C(=O)c2ccc(OC(F)(F)F)cc2)c(NC(=O)CNC2(C(=O)O)CCCC2)s1 [Example 190, 1-({[5-Ethyl-3-(4-trifluoromethoxy-benzoyl)-thiophen-2-ylcarbamoyl]-methyl}-amino)-cyclopentanecarboxylic acid] | – | < 100
23 | CCc1cc(C(=O)c2ccc(C)c(C)c2)c(NC(=O)CSCC(=O)O)s1 [Example 51, {[3-(3,4-Dimethyl-benzoyl)-5-ethyl-thiophen-2-ylcarbamoyl]-methylsulfanyl}-acetic acid] | 1000 to 30000 | –
24 | O=C(CN1[C@@H](C(=O)O)CC[C@@H]1c1ccccc1)Nc1sc(Cl)cc1C(=O)c1ccc(OC(F)(F)F)cc1 [Example 188, (2R,5R)-1-{[5-Chloro-3-(4-trifluoromethoxy-benzoyl)-thiophen-2-ylcarbamoyl]-methyl}-5-phenyl-pyrrolidine-2-carboxylic acid hydrochloride] | – | < 100
25 | CCc1cc(C(=O)c2ccc(OC(F)(F)F)cc2)c(NC(=O)CN2[C@@H](C(=O)O)CC[C@@H]2c2ccccc2)s1 [Example 184, (2R,5R)-1-{[5-Ethyl-3-(4-trifluoromethoxy-benzoyl)-thiophen-2-ylcarbamoyl]-methyl}-5-phenyl-pyrrolidine-2-carboxylic acid] | – | < 100
